System: CHOP, BiP, and DR5 mRNA in HCT116 cells
Assay: qPCR of UPR target transcripts (CHOP, BiP, DR5)
Type: cell-based, Homo sapiens
Description: Cells were grown in 6-well plates and harvested with 0.5 ml of TRIzol reagent (Life Technologies) per manufacturer’s protocol to extract RNA. For cDNA synthesis, 500 ng of total RNA was reverse transcribed with 2 μl of the SuperScript VILO master mix (Life Technologies # 11755050) in a total reaction volume of 10 μl following the manufacturer’s protocol for reaction temperature and duration. The reverse transcription product was diluted to 200 μl with 10 mM Tris-HCl pH 8.2 and used at 1:100 dilution for subsequent RT-PCR reactions.
PCR samples were prepared as described by manufacturer’s protocols from iQ SYBR Green Supermix (BioRad #17088800).
For each experiment, qRT-PCR reactions were set up in triplicate and run using a CFX96 Real Time System (Bio-Rad). Quantitation cycles were determined with CFX Manager 3.0 software (Bio-Rad) and then normalized to GAPDH as an internal control.

[1] = 7 hr, Rep 2, vs 24 hr cytoGFP (empty traffo), replicate 2
[2] = 7 hr, Rep 2, vs 24 hr cytoGFP (empty traffo), replicate 3
[3] = 24 hr, Rep 2, vs 24 hr cytoGFP (empty traffo), mean of 3 replicates
[4] = 24 hr, Rep 2, vs 24 hr cytoGFP (empty traffo), replicate 1
[5] = 24 hr, Rep 2, vs 24 hr cytoGFP (empty traffo), replicate 2
[6] = 24 hr, Rep 2, vs 24 hr cytoGFP (empty traffo), replicate 3
[7] = Compiled Reps INS RHO, average of 6 reps

“RHO-GFP: GFP-tagged rhodopsin expressed from plasmid” was tested, and the “fold induction CHOP” value [1] was 4.143, the “fold induction DR5 total” value [1] was 1.407 and the “fold induction CHOP” value [2] was 4.312. For the same substance, the “fold induction DR5 total” value [2] was 1.304, the “2^-(deltaCq) CHOP” value (24 hr, Rep 2, replicate 1) was 0.04125 and the “2^-(deltaCq) DR5 total” value (24 hr, Rep 2, replicate 1) was 0.04254. The “Cq CHOP” value (24 hr, Rep 2, replicate 1) was 23.6176, the “Cq DR5 total” value (24 hr, Rep 2, replicate 1) was 23.5731 and the “Cq(sample) - avg Cq(GAPDH), CHOP” value (24 hr, Rep 2, replicate 1) was 4.6. For the same substance, the “Cq(sample) - avg Cq(GAPDH), DR5 total” value (24 hr, Rep 2, replicate 1) was 4.555, the “2^-(deltaCq) CHOP” value (24 hr, Rep 2, replicate 2) was 0.03991 and the “2^-(deltaCq) DR5 total” value (24 hr, Rep 2, replicate 2) was 0.04129. The “Cq CHOP” value (24 hr, Rep 2, replicate 2) was 23.6651, the “Cq DR5 total” value (24 hr, Rep 2, replicate 2) was 23.6162 and the “Cq(sample) - avg Cq(GAPDH), CHOP” value (24 hr, Rep 2, replicate 2) was 4.647. The “Cq(sample) - avg Cq(GAPDH), DR5 total” value (24 hr, Rep 2, replicate 2) was 4.598, the “2^-(deltaCq) CHOP” value (24 hr, Rep 2, replicate 3) was 0.039 and the “2^-(deltaCq) DR5 total” value (24 hr, Rep 2, replicate 3) was 0.03658. The “Cq CHOP” value (24 hr, Rep 2, replicate 3) was 23.6985, the “Cq DR5 total” value (24 hr, Rep 2, replicate 3) was 23.7909 and the “Cq(sample) - avg Cq(GAPDH), CHOP” value (24 hr, Rep 2, replicate 3) was 4.681. The “Cq(sample) - avg Cq(GAPDH), DR5 total” value (24 hr, Rep 2, replicate 3) was 4.773, the “avg. fold induction CHOP” value [3] was 1.837 and the “avg. fold induction DR5 total” value [3] was 1.401. For the same substance, the “fold induction CHOP” value [4] was 1.892, the “fold induction DR5 total” value [4] was 1.485 and the “fold induction CHOP” value [5] was 1.831. For the same substance, the “fold induction DR5 total” value [5] was 1.441, the “fold induction CHOP” value [6] was 1.789 and the “fold induction DR5 total” value [6] was 1.277. The “BiP avg fold change relative to empty” value (Compiled Reps INS RHO, average of 3 reps) was 1.525, the “CHOP avg fold change relative to empty” value [7] was 1.961 and the “DR5 avg fold change relative to empty” value [7] was 1.368. The “GAPDH avg fold change relative to empty” value [7] was 1.006, the “GFP construct avg fold change relative to empty” value [7] was 63.7569 and the “BiP fold change relative to empty” value (Compiled Reps INS RHO, rep 1) was 1.759. For the same substance, the “CHOP fold change relative to empty” value (Compiled Reps INS RHO, rep 1) was 2.318, the “DR5 fold change relative to empty” value (Compiled Reps INS RHO, rep 1) was 1.2854 and the “GAPDH fold change relative to empty” value (Compiled Reps INS RHO, rep 1) was 0.9696. For the same substance, the “GFP construct fold change relative to empty” value (Compiled Reps INS RHO, rep 1) was 45.8961, the “BiP fold change relative to empty” value (Compiled Reps INS RHO, rep 2) was 1.438 and the “CHOP fold change relative to empty” value (Compiled Reps INS RHO, rep 2) was 1.9687. For the same substance, the “DR5 fold change relative to empty” value (Compiled Reps INS RHO, rep 2) was 1.492, the “GAPDH fold change relative to empty” value (Compiled Reps INS RHO, rep 2) was 1.117 and the “GFP construct fold change relative to empty” value (Compiled Reps INS RHO, rep 2) was 55.1085. For the same substance, the “BiP fold change relative to empty” value (Compiled Reps INS RHO, rep 3) was 1.377, the “CHOP fold change relative to empty” value (Compiled Reps INS RHO, rep 3) was 1.972 and the “DR5 fold change relative to empty” value (Compiled Reps INS RHO, rep 3) was 1.23. For the same substance, the “GAPDH fold change relative to empty” value (Compiled Reps INS RHO, rep 3) was 0.9232, the “GFP construct fold change relative to empty” value (Compiled Reps INS RHO, rep 3) was 65.8656 and the “CHOP fold change relative to empty” value (Compiled Reps INS RHO, rep 4) was 1.892. The “DR5 fold change relative to empty” value (Compiled Reps INS RHO, rep 4) was 1.485, the “GAPDH fold change relative to empty” value (Compiled Reps INS RHO, rep 4) was 0.8039 and the “GFP construct fold change relative to empty” value (Compiled Reps INS RHO, rep 4) was 62.5314. The “CHOP fold change relative to empty” value (Compiled Reps INS RHO, rep 5) was 1.831, the “DR5 fold change relative to empty” value (Compiled Reps INS RHO, rep 5) was 1.441 and the “GAPDH fold change relative to empty” value (Compiled Reps INS RHO, rep 5) was 1.063. For the same substance, the “GFP construct fold change relative to empty” value (Compiled Reps INS RHO, rep 5) was 61.8163, the “CHOP fold change relative to empty” value (Compiled Reps INS RHO, rep 6) was 1.789 and the “DR5 fold change relative to empty” value (Compiled Reps INS RHO, rep 6) was 1.277. The “GAPDH fold change relative to empty” value (Compiled Reps INS RHO, rep 6) was 1.16, the “GFP construct fold change relative to empty” value (Compiled Reps INS RHO, rep 6) was 91.3236 and the “UPR target gene transcription” value (HCT116, transfected 24 hr) was “upregulated BiP and CHOP mRNAs”.

— article PMC7041945, “Misfolded proteins bind and activate death receptor 5 to trigger apoptosis during unresolved endoplasmic reticulum stress” (eLife, 2020)
